Patent US20230117034A1, “PYRAZOLOTRIAZINES” (Bayer Aktiengesellschaft, priority 2019, published 2023)

Tests used:
[1] = molecular target: T1, CYCLIN K (nuclear staining in CAL-120 cells) (Homo sapiens, UniProt O75909); assay: CYCLIN K nuclear protein level: immunofluorescence high content analysis (CAL-120); format: cell-based; conditions: 24 h, 50% reduction of nuclear CCNK staining intensity, median, read-out: CYCLIN K degradation IF, DC50-[mol/l] (median)
T1 construct: endogenous in cells; host or cells: CAL-120 human breast cancer cells (DSMZ ACC 459)
T1 sequence (O75909 whole entry): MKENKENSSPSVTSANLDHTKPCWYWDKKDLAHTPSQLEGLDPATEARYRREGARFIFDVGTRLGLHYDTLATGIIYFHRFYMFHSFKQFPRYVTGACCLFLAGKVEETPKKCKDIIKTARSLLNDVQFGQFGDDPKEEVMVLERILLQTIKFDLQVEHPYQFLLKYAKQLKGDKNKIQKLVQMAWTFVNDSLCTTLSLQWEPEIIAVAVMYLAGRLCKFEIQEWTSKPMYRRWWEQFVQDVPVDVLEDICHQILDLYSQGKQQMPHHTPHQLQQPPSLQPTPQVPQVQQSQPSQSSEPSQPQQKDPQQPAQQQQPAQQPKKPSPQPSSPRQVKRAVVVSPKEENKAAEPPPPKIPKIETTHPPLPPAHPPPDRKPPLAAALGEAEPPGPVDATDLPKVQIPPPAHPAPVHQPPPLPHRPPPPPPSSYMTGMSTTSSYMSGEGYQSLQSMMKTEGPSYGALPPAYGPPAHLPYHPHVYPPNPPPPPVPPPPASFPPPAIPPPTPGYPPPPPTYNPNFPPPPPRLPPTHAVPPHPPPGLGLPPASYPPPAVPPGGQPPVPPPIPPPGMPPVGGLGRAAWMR
T1 sequence (Q9NYV4 whole entry partner): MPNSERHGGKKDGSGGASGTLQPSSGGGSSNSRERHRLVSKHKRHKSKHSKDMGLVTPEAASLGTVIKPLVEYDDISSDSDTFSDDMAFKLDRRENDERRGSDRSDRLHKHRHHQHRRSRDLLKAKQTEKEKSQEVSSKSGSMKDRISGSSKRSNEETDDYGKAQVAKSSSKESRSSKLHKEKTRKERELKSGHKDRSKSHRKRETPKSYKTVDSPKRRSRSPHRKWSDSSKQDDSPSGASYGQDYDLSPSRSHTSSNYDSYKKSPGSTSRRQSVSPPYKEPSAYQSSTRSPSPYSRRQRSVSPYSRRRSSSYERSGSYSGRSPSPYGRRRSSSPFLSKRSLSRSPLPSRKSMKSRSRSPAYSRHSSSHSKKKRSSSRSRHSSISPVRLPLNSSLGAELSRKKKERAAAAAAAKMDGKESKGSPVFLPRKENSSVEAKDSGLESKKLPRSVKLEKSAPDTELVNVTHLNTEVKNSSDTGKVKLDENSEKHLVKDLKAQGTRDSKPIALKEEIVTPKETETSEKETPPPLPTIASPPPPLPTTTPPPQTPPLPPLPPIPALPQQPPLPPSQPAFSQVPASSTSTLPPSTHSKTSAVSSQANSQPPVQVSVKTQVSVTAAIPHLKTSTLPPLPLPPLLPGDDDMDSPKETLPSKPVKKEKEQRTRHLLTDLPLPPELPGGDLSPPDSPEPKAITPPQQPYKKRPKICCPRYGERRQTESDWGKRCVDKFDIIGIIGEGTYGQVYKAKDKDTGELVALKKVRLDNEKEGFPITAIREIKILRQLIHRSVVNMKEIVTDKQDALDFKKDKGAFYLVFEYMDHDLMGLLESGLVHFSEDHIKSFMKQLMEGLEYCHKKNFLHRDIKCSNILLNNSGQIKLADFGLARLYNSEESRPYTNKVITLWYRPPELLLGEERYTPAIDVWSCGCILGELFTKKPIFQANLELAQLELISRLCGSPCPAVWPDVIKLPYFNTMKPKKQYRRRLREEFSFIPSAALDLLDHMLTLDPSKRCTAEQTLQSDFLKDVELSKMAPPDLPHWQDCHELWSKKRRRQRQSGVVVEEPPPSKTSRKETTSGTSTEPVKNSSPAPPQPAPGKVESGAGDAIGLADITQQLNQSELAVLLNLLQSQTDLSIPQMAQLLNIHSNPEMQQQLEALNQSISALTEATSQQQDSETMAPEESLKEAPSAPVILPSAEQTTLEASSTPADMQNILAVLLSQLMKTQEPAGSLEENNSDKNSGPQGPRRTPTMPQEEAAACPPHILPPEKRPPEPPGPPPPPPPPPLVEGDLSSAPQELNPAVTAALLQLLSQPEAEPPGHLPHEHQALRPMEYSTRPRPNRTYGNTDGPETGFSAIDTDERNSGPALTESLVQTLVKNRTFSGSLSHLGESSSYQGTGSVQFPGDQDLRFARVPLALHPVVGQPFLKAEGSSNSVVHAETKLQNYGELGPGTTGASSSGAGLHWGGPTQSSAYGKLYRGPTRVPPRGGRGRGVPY
How it was run: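 Readout is automated confocal image analysis of nuclear cyclin K immunofluorescence (Hoechst nuclei) after PFA fixation. Cells were CAL-120, exposed to compound dose-response 24 h at 37 °C; values are DC50 for halving nuclear CCNK signal relative to DMSO and control wells.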

[2] = test system: MDA-MB-231, human breast cancer cells; assay: Proliferation assay MDA-MB-231 (crystal violet, 4 days); format: cell-based; conditions: Homo sapiens, MDA-MB-231, 96 h, MDA-MB-231 cells, median, read-out: Prolif-MDA MB-231, IC50-[mol/l] (median)
How it was run: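 Growth was measured by crystal violet staining after cells had been treated with compounds (0.01-10 µmol/L, 0.1% DMSO) for 4 days, beginning 24 h after seeding. Values were normalized to a zero-point plate and to untreated controls, and IC50 values were derived by a four-parameter fit.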

[3] = test system: BRCA1 mRNA expression in MDA-MB-231 cells; assay: qRT-PCR assay: BRCA1 mRNA expression in MDA-MB-231; format: cell-based, human; conditions: Homo sapiens, MDA-MB-231, Inhibition of BRCA1 mRNA expression in MDA-MB-231 cells; median; read-out: RTqPCR-MDA-MB-231, IC50, BRCA1 (median)
How it was run: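 First, cells are plated at 200,000 per well and allowed 24 h. Second, test substances are applied continuously for a further 24 h. Finally, RNA is isolated, 600 ng is converted to cDNA, and qPCR quantifies the transcript relative to GAPDH.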

DC50 [1]	IC50 [2]	IC50 [3]	Structure (SMILES)
2.29 nM	12.9 nM	4.27 nM	Cc1ccc2[nH]c(CNc3nc(N4C[C@H]5C[C@@H]4CO5)nc4c(C5CC5)cnn34)nc2c1 [Example 196, 8-cyclopropyl-N-[(5-methyl-1H-benzimidazol-2-yl)methyl]-2-[(1R,4R)-2-oxa-5-azabicyclo[2.2.1]heptan-5-yl]pyrazolo[1,5-a][1,3,5]triazin-4-amine]
6.49 nM	129 nM	131 nM	Brc1cnn2c(NCc3nc4ccccc4[nH]3)nc(N3CCC4(CCCN4)C3)nc12 (centres unmarked) [Example 215, N-(1H-benzimidazol-2-ylmethyl)-8-bromo-2-(1,7-diazaspiro[4.4]nonan-7-yl)pyrazolo[1,5-a][1,3,5]triazin-4-amine]
1.29 nM	4.8 nM	2.83 nM	Cc1ccc2[nH]c(CNc3nc(N4C[C@@H]5CCCN[C@@H]5C4)nc4c(C5CC5)cnn34)nc2c1 [Example 195, 8-cyclopropyl-N-[(5-methyl-1H-benzimidazol-2-yl)methyl]-2-[(4aS,7aS)-octahydro-6H-pyrrolo[3,4-b]pyridin-6-yl]pyrazolo[1,5-a][1,3,5]triazin-4-amine]
	434 nM		OCCNc1nc(NCc2nc3ccccc3[nH]2)n2ncc(Br)c2n1 [Example 228, 2-[(4-{[(1H-benzimidazol-2-yl)methyl]amino}-8-bromopyrazolo[1,5-a][1,3,5]triazin-2-yl)amino]ethan-1-ol]
0.503 nM	9.29 nM	3.51 nM	Fc1ccc2[nH]c(CNc3nc(N4CCOCC4)nc4c(C5CC5)cnn34)nc2c1 [Example 181, 8-cyclopropyl-N-[(5-fluoro-1H-benzimidazol-2-yl)methyl]-2-(morpholin-4-yl)pyrazolo[1,5-a][1,3,5]triazin-4-amine]
0.187 nM	9.68 nM	2.18 nM	OC[C@@H]1CCCCN1c1nc(NCc2nc3cc(F)ccc3[nH]2)n2ncc(C3CC3)c2n1 [Example 191, [(2S)-1-(8-cyclopropyl-4-{[(5-fluoro-1H-benzimidazol-2-yl)methyl]amino}pyrazolo[1,5-a][1,3,5]triazin-2-yl)piperidin-2-yl]methanol]
	332 nM		CN(C)[C@H]1CCN(c2nc(NCc3nc4ccccc4[nH]3)n3ncc(Br)c3n2)C1 [Example 177, N-[(1H-benzimidazol-2-yl)methyl]-8-bromo-2-[(3S)-3-(dimethylamino)pyrrolidin-1-yl]pyrazolo[1,5-a][1,3,5]triazin-4-amine]
	123 nM	34.8 nM	CC1(O)CCN(c2nc(NCc3nc4ccccc4[nH]3)n3ncc(Br)c3n2)C1 (centres unmarked) [Example 225, 1-[4-(1H-benzimidazol-2-ylmethylamino)-8-bromo-pyrazolo[1,5-a][1,3,5]triazin-2-yl]-3-methyl-pyrrolidin-3-ol]
34.1 nM	110 nM		CN1CCCC2CN(c3nc(NCc4nc5ccccc5[nH]4)n4ncc(Br)c4n3)CC21 (centres unmarked) [Example 231, N-[(1H-benzimidazol-2-yl)methyl]-8-bromo-2-(1-methyloctahydro-6H-pyrrolo[3,4-b]pyridin-6-yl)pyrazolo[1,5-a][1,3,5]triazin-4-amine]
	261 nM		COCCNc1nc(NCc2nc3ccccc3[nH]2)n2ncc(Br)c2n1 [Example 230, N4-(1H-benzimidazol-2-ylmethyl)-8-bromo-N2-(2-methoxyethyl)pyrazolo[1,5-a][1,3,5]triazine-2,4-diamine]
	128 nM	21.2 nM	O[C@H]1CCN(c2nc(NCc3nc4ccccc4[nH]3)n3ncc(Br)c3n2)C1 [Example 224, (3S)-1-(4-{[(1H-benzimidazol-2-yl)methyl]amino}-8-bromopyrazolo[1,5-a][1,3,5]triazin-2-yl)pyrrolidin-3-ol]
	315 nM		Brc1cnn2c(NCc3nc4ccccc4[nH]3)nc(NCCN3CCCC3)nc12 [Example 235, N4-(1H-benzimidazol-2-ylmethyl)-8-bromo-N2-(2-pyrrolidin-1-ylethyl)pyrazolo[1,5-a][1,3,5]triazine-2,4-diamine]
	349 nM	86.5 nM	CO[C@@H]1CCN(c2nc(NCc3nc4ccccc4[nH]3)n3ncc(Br)c3n2)C1 [Example 223, N-[(1H-benzimidazol-2-yl)methyl]-8-bromo-2-[(3R)-3-methoxypyrrolidin-1-yl]pyrazolo[1,5-a][1,3,5]triazin-4-amine]
	290 nM	145 nM	CN(C)C1CCN(c2nc(NCc3nc4ccccc4[nH]3)n3ncc(Br)c3n2)CC1 [Example 201, N-[(1H-benzimidazol-2-yl)methyl]-8-bromo-2-[4-(dimethylamino)piperidin-1-yl]pyrazolo[1,5-a][1,3,5]triazin-4-amine]
3.05 nM	182 nM		CO[C@H]1CCN(c2nc(NCc3nc4ccccc4[nH]3)n3ncc(Br)c3n2)C1 [Example 222, N-[(1H-benzimidazol-2-yl)methyl]-8-bromo-2-[(3S)-3-methoxypyrrolidin-1-yl]pyrazolo[1,5-a][1,3,5]triazin-4-amine]
0.973 nM		2.46 nM	C[C@@H]1CN(c2nc(NCc3nc4ccccc4[nH]3)n3ncc(Br)c3n2)CCN1 [Example 168, N-[(1H-benzimidazol-2-yl)methyl]-8-bromo-2-[(3R)-3-methylpiperazin-1-yl]pyrazolo[1,5-a][1,3,5]triazin-4-amine]
	145 nM		CCN(C)c1nc(NCc2nc3ccccc3[nH]2)n2ncc(Br)c2n1 [Example 233, N4-(1H-benzimidazol-2-ylmethyl)-8-bromo-N2-ethyl-N2-methyl-pyrazolo[1,5-a][1,3,5]triazine-2,4-diamine]
	98 nM	60.3 nM	COc1cccc2[nH]c(CNc3nc(N4C[C@H]5C[C@@H]4CO5)nc4c(C5CC5)cnn34)nc12 [Example 198, 8-cyclopropyl-N-[(4-methoxy-1H-benzimidazol-2-yl)methyl]-2-[(1R,4R)-2-oxa-5-azabicyclo[2.2.1]heptan-5-yl]pyrazolo[1,5-a][1,3,5]triazin-4-amine]
	561 nM		CN(CCN1CCCC1)c1nc(NCc2nc3ccccc3[nH]2)n2ncc(Br)c2n1 [Example 239, N4-(1H-benzimidazol-2-ylmethyl)-8-bromo-N2-methyl-N2-(2-pyrrolidin-1-ylethyl)pyrazolo[1,5-a][1,3,5]triazine-2,4-diamine]
14.5 nM		31.8 nM	CC1CN(c2nc(NCc3nc4ccccc4[nH]3)n3ncc(C(C)C)c3n2)CCO1 (racemic) [Example 11, (rac)-N-[(1H-benzimidazol-2-yl)methyl]-2-[2-methylmorpholin-4-yl]-8-(propan-2-yl)pyrazolo[1,5-a][1,3,5]triazin-4-amine]
	253 nM	514 nM	CN1CCN(c2nc(NCc3nc4ccccc4[nH]3)n3ncc(-c4ccncc4)c3n2)CC1 [Example 242, N-[(1H-benzimidazol-2-yl)methyl]-2-(4-methylpiperazin-1-yl)-8-(pyridin-4-yl)pyrazolo[1,5-a][1,3,5]triazin-4-amine]
	707 nM	429 nM	O=C1CN(c2nc(NCc3nc4ccccc4[nH]3)n3ncc(Br)c3n2)CCN1 [Example 167, 4-(4-{[(1H-benzimidazol-2-yl)methyl]amino}-8-bromopyrazolo[1,5-a][1,3,5]triazin-2-yl)piperazin-2-one]
	501 nM		CN(C)[C@@H]1CCN(c2nc(NCc3nc4ccccc4[nH]3)n3ncc(Br)c3n2)C1 [Example 178, N-[(1H-benzimidazol-2-yl)methyl]-8-bromo-2-[(3R)-3-(dimethylamino)pyrrolidin-1-yl]pyrazolo[1,5-a][1,3,5]triazin-4-amine]
19.7 nM	164 nM		CN(CCO)c1nc(NCc2nc3ccccc3[nH]2)n2ncc(Br)c2n1 [Example 237, 2-[(4-{[(1H-benzimidazol-2-yl)methyl]amino}-8-bromopyrazolo[1,5-a][1,3,5]triazin-2-yl)(methyl)amino]ethan-1-ol]
	152 nM	66.2 nM	OC1(C(F)(F)F)CCN(c2nc(NCc3nc4ccccc4[nH]3)n3ncc(Br)c3n2)C1 (centres unmarked) [Example 200, 1-[4-(1H-benzimidazol-2-ylmethylamino)-8-bromo-pyrazolo[1,5-a][1,3,5]triazin-2-yl]-3-(trifluoromethyl)pyrrolidin-3-ol]

Structure (SMILES)	DC50 [1]	IC50 [2]	IC50 [3]
Brc1cnn2c(NCc3nc4ccccc4[nH]3)nc(N3CC4CCC(C3)N4)nc12 [Example 232, N-(1H-benzimidazol-2-ylmethyl)-8-bromo-2-(3,8-diazabicyclo[3.2.1]octan-3-yl)pyrazolo[1,5-a][1,3,5]triazin-4-amine]	1.06 nM	17.9 nM	4.92 nM
CN1CC2CCC(C1)N2c1nc(NCc2nc3ccccc3[nH]2)n2ncc(Br)c2n1 [Example 226, N-(1H-benzimidazol-2-ylmethyl)-8-bromo-2-(3-methyl-3,8-diazabicyclo[3.2.1]octan-8-yl)pyrazolo[1,5-a][1,3,5]triazin-4-amine]	3.89 nM	162 nM	
